Source: patent publication US12319664B2, “Herbicidally active 3-phenylisoxazoline-5-carboxamides of cyclopentenylcarboxylic acid derivatives” (Bayer Aktiengesellschaft, priority 2018, dated 2025)

Columns and labels:
ALOMY [1] = assay: Pre-emergence herbicidal action against ALOMY; assay type: in vivo, Alopecurus myosuroides; conditions: application rate 80 g/ha, scored visually after about 3 weeks vs untreated controls (100% = plants have died, 0% = like control plants)
Text: (§1) 1. Pre-emergence herbicidal action against harmful plants and crop plant compatibility Seeds of monocotyledonous and dicotyledonous weed plants and crop plants are placed in plastic or wood-fibre pots and covered with soil. The compounds of the invention, formulated in the form of wettable powders (WP) or as emulsion concentrates (EC), are then applied onto the surface of the covering soil as aqueous suspension or emulsion with addition of 0.5% additive at a water application rate of 600 l/ha (converted). After the treatment, the pots are placed in a greenhouse and kept under good growth conditions for the trial plants. After about 3 weeks, the effect of the preparations is scored visually in comparison with untreated controls as percentages. For example, 100% activity=the plants have died, 0% activity=like control plants. [table]

ECHCG [2] = assay: Pre-emergence herbicidal action against ECHCG; assay type: in vivo, Echinochloa crus-galli; conditions: application rate 80 g/ha, scored visually after about 3 weeks vs untreated controls (100% = plants have died, 0% = like control plants)
Text: as §1

LOLRI [3] = assay: Pre-emergence herbicidal action against LOLRI; assay type: in vivo, Lolium rigidum; conditions: application rate 80 g/ha, scored visually after about 3 weeks vs untreated controls (100% = plants have died, 0% = like control plants)
Text: as §1

SETVI [4] = assay: Pre-emergence herbicidal action against SETVI; assay type: in vivo, Setaria viridis; conditions: application rate 80 g/ha, scored visually after about 3 weeks vs untreated controls (100% = plants have died, 0% = like control plants)
Text: as §1

AMARE [5] = assay: Pre-emergence herbicidal action against AMARE; assay type: in vivo, Amaranthus retroflexus; conditions: application rate 80 g/ha
Text: as §1

PHBPU [6] = assay: Pre-emergence herbicidal action against PHBPU; assay type: in vivo, Pharbitis purpurea; conditions: application rate 80 g/ha
Text: as §1

POLCO [7] = assay: Pre-emergence herbicidal action against POLCO; assay type: in vivo, Polygonum convolvulus; conditions: application rate 80 g/ha
Text: as §1

STEME [8] = assay: Pre-emergence herbicidal action against STEME; assay type: in vivo, Stellaria media; conditions: application rate 80 g/ha
Text: as §1

VIOTR [9] = assay: Pre-emergence herbicidal action against VIOTR; assay type: in vivo, Viola tricolor; conditions: application rate 80 g/ha
Text: as §1

HORMU [10] = assay: Pre-emergence herbicidal action against HORMU; assay type: in vivo, Hordeum murinum; conditions: application rate 80 g/ha
Text: as §1

ALOMY [11] = assay: Post-emergence herbicidal action against ALOMY; assay type: in vivo, Alopecurus myosuroides; conditions: application rate 80 g/ha, rated visually after about 3 weeks
Method in brief: (§2)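 Foliar application at 600 l/ha water, 0.5% additive, WP or EC formulation; plants at one-leaf stage in greenhouse sandy loam pots. Scored visually ~3 weeks post-treatment, 0–100% relative to untreated plants.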

AVEFA [12] = assay: Post-emergence herbicidal action against AVEFA; assay type: in vivo, Avena fatua; conditions: application rate 80 g/ha, rated visually after about 3 weeks
Method in brief: as §2

ECHCG [13] = assay: Post-emergence herbicidal action against ECHCG; assay type: in vivo, Echinochloa crus-galli; conditions: application rate 80 g/ha, rated visually after about 3 weeks
Method in brief: as §2

LOLRI [14] = assay: Post-emergence herbicidal action against LOLRI; assay type: in vivo, Lolium rigidum; conditions: application rate 80 g/ha, rated visually after about 3 weeks
Method in brief: as §2

SETVI [15] = assay: Post-emergence herbicidal action against SETVI; assay type: in vivo, Setaria viridis; conditions: application rate 80 g/ha, rated visually after about 3 weeks
Method in brief: as §2

AMARE [16] = assay: Post-emergence herbicidal action against AMARE; assay type: in vivo, Amaranthus retroflexus; conditions: application rate 80 g/ha, rated visually about 3 weeks after treatment
Method in brief: as §2

POLCO [17] = assay: Post-emergence herbicidal action against POLCO; assay type: in vivo, Polygonum convolvulus; conditions: application rate 80 g/ha, rated visually about 3 weeks after treatment
Method in brief: as §2

STEME [18] = assay: Post-emergence herbicidal action against STEME; assay type: in vivo, Stellaria media; conditions: application rate 80 g/ha, rated visually about 3 weeks after treatment
Method in brief: as §2

VIOTR [19] = assay: Post-emergence herbicidal action against VIOTR; assay type: in vivo, Viola tricolor; conditions: application rate 80 g/ha, rated visually about 3 weeks after treatment
Method in brief: as §2

HORMU [20] = assay: Post-emergence herbicidal action against HORMU; assay type: in vivo, Hordeum murinum; conditions: application rate 80 g/ha
Method in brief: as §2

AVEFA [21] = assay: Pre-emergence herbicidal action against AVEFA; assay type: in vivo, Avena fatua; conditions: application rate 80 g/ha, scored visually after about 3 weeks vs untreated controls (100% = plants have died, 0% = like control plants)
Text: as §1

VERPE [22] = assay: Pre-emergence herbicidal action against VERPE; assay type: in vivo, Veronica persica; conditions: application rate 80 g/ha
Text: as §1

ABUTH = assay: Post-emergence herbicidal action against ABUTH; assay type: in vivo, Abutilon theophrasti; conditions: application rate 80 g/ha, rated visually about 3 weeks after treatment
Method in brief: as §2

PHBPU [23] = assay: Post-emergence herbicidal action against PHBPU; assay type: in vivo, Pharbitis purpurea; conditions: application rate 80 g/ha, rated visually about 3 weeks after treatment
Method in brief: as §2

VERPE [24] = assay: Post-emergence herbicidal action against VERPE; assay type: in vivo, Veronica persica; conditions: application rate 80 g/ha
Method in brief: as §2

| SMILES | Herbicidal action against [%] ALOMY (ALOMY [1]) [%] | Herbicidal action against [%] ECHCG (ECHCG [2]) [%] | Herbicidal action against [%] LOLRI (LOLRI [3]) [%] | Herbicidal action against [%] SETVI (SETVI [4]) [%] | Herbicidal action against [%] AMARE (AMARE [5]) [%] | Herbicidal action against [%] PHBPU (PHBPU [6]) [%] | Herbicidal action against [%] POLCO (POLCO [7]) [%] | Herbicidal action against [%] STEME (STEME [8]) [%] | Herbicidal action against [%] VIOTR (VIOTR [9]) [%] | Herbicidal action against [%] HORMU (HORMU [10]) [%] | Herbicidal action against [%] ALOMY (ALOMY [11]) [%] | Herbicidal action against [%] AVEFA (AVEFA [12]) [%] | Herbicidal action against [%] ECHCG (ECHCG [13]) [%] | Herbicidal action against [%] LOLRI (LOLRI [14]) [%] | Herbicidal action against [%] SETVI (SETVI [15]) [%] | Herbicidal action against [%] AMARE (AMARE [16]) [%] | Herbicidal action against [%] POLCO (POLCO [17]) [%] | Herbicidal action against [%] STEME (STEME [18]) [%] | Herbicidal action against [%] HORMU (HORMU [20]) [%] | Herbicidal action against [%] AVEFA (AVEFA [21]) [%] | also measured |
| --- | --- | --- | --- | --- | --- | --- | --- | --- | --- | --- | --- | --- | --- | --- | --- | --- | --- | --- | --- | --- | --- |
| CN(C)NC(=O)C1=CCC(NC(=O)C2(C)CC(c3cccc(F)c3)=NO2)C1 (mixture of isomers) [IV-06] | 100 | 90 | 100 | 100 | 80 | 90 | 80 | 90 | 100 | 90 | 90 | 90 | 80 | 80 | 80 | 80 | 80 | 80 | 90 |  | Herbicidal action against [%] VIOTR (VIOTR [19]): 90% |
| CC1(C(=O)N[C@H]2C=C[C@@H](C(=O)N3CCCO3)C2)CC(c2cc(F)cc(F)c2)=NO1 (some centres unmarked) [II-06] | 90 | 90 | 100 | 100 | 100 |  | 80 | 90 | 100 | 100 | 90 | 80 | 80 | 90 | 80 | 80 | 80 | 80 | 80 | 90 | Herbicidal action against [%] VERPE (VERPE [22]): 90%; Herbicidal action against [%] ABUTH (ABUTH): 80%; Herbicidal action against [%] PHBPU (PHBPU [23]): 80%; Herbicidal action against [%] VERPE (VERPE [24]): 80% |
| CC1(C(=O)N[C@H]2CC=C(C(=O)O)C2)CC(c2cccc(F)c2)=NO1 (some centres unmarked) [III-02] | 100 |  | 100 |  | 80 | 80 |  | 80 |  | 100 | 80 | 90 | 90 | 90 | 80 | 80 |  | 80 | 100 | 80 | Herbicidal action against [%] VERPE (VERPE [22]): 90%; Herbicidal action against [%] PHBPU (PHBPU [23]): 80%; Herbicidal action against [%] VERPE (VERPE [24]): 80% |
| COC(=O)C1=CC[C@H](NC(=O)C2(C)CC(c3cccc(F)c3)=NO2)C1 (some centres unmarked) [III-04] | 100 | 90 | 100 | 100 | 90 | 90 | 100 | 90 | 90 | 100 | 90 | 100 | 80 | 90 | 80 | 80 | 80 | 80 | 100 | 90 | Herbicidal action against [%] VERPE (VERPE [22]): 90%; Herbicidal action against [%] PHBPU (PHBPU [23]): 90% |
| CCOC(=O)C1=CC[C@H](NC(=O)C2(C)CC(c3cccc(F)c3)=NO2)C1 (some centres unmarked) [III-06] | 100 | 90 | 100 | 100 |  | 80 | 100 | 90 | 90 | 90 | 90 | 80 | 80 | 90 | 80 | 80 | 80 | 90 | 90 | 80 | Herbicidal action against [%] VERPE (VERPE [22]): 80%; Herbicidal action against [%] ABUTH (ABUTH): 80% |
